Assay results reported in ChEMBL document CHEMBL4699400, “Discovery of a novel kinase hinge binder fragment by dynamic undocking” (RSC Med Chem, 2020).
The source made the active and inactive calls. The calls are words filed in the database; no cut-off is given here.

Columns and labels:
[1] = target: T1, Maternal embryonic leucine zipper kinase (Homo sapiens, UniProt Q14680); experiment: Displacement of kinase tracer 236 from human N-terminal His-tagged MELK (1 to 337 residues) expressed in Escherichia coli BL21 pLysS by microscale thermophoresis assay
Target sequence in this assay (Q14680 whole entry, the tested form may be a part): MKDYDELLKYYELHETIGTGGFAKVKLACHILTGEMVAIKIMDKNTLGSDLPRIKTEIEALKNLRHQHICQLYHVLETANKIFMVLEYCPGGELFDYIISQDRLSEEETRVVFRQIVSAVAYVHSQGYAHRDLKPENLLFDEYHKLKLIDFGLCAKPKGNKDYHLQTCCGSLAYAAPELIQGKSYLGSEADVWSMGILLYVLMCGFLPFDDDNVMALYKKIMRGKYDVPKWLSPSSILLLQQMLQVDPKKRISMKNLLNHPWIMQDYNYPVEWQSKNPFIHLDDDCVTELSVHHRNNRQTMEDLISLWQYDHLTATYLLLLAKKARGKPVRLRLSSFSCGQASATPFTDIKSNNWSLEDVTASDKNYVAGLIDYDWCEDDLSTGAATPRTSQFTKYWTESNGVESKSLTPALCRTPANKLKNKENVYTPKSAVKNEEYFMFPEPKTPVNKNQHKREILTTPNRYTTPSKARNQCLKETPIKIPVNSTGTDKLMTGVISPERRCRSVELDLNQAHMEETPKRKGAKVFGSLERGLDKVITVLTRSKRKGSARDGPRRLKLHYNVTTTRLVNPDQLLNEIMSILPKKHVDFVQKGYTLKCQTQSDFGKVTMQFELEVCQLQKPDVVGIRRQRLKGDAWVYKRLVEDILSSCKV

[2] = target: T1, Maternal embryonic leucine zipper kinase; experiment: Binding affinity to human N-terminal His-tagged MELK (1 to 337 residues) expressed in Escherichia coli BL21 pLysS at 50 uM by STD-NMR analysis
Target sequence in this assay (Q14680 whole entry, looked up, the tested form may be a part): as the sequence (Q14680 whole entry, the tested form may be a part) above

Nc1cccc2cc[nH]c(=O)c12
EC50 [1]: 21.1 µM
Ki [1]: 5.47 µM
Activity [2]: Active
